Measured values reported in PMC3652823 (PLoS ONE, 2013).
Read-outs that look alike come from different tables or passages of the source.

Assays:
[1] = design: method as in Gao et al. (2008) [16]; conditions: in situ loop method in rats; ref Gao et al. (2008) [16]; cited from earlier work
GI membrane = GI membrane toxicity by morphological observation; type: in vivo, rat; conditions: rats, oral, COS 25 mg/kg
Experimental: After in vivo pharmacokinetics experiments were carried out for 8 h, the GI was wash with HBSS (pH 7.4) and the segments were removed and immersed in the 4% neutral paraform aldehyde buffer and fixed. Vertical sections were prepared, stained with hematoxylin-eosin, and examined by light microscopy. To be able to describe possible changes in the structure of the tissue, tissues were studied and evaluated for morphological changes using the following parameters: Measurement of the distance between the nucleus and the apical membrane in enterocytes with a measuring-rod. Five measurements in each villus and five villi were measured in each slide. The villi were randomly chosen and measurements were all conducted at the tips of the villi. Villus index was used for duodenum, jejunum and ileum and crypt index for colon. Measurement of height (villi) or depth (crypt) and width (one-half of height or depth) was done with a measuring-rod of five villi/crypts in each slide that were randomly chosen. Height/depth was divided with width to receive the index.

[2] = rat, in vivo, po, cited from earlier work
[3] = rat, in vivo, po; cited from earlier work
in vivo = conditions: male, SD, rat, po
protein kinase C (PKCα) = target: protein kinase C (PKCα); design: method as in earlier work; conditions: read-out: IC50, inhibition of protein kinase C (PKCα); cited from earlier work
Caco-2 cell monolayers = type: in vitro ADME, human
Experimental: Caco-2 cells were cultured in high glucose DMEM with 10% fetal bovine serum, 1% nonessential amino acids. Cells were cultured in a humidified atmosphere of 5% CO2 at 37°C. After reaching 80% confluens, Caco-2 cells were harvested with 0.05% trypsin-EDTA solution and seeded on top of CC inserts in 6-well plates, which has a surface area of 4.2 cm^2, at a density of 1.0×10^5 cells/cm^2. The protocols for cell culture in Transwell inserts were similar to those described previously.
Hank’s balanced salt solution (HBSS) was used as the transport buffer for the transport study in Caco-2 cell monolayer model. It was prepared by dissolving 9.5 grams of commercial available HBSS powder in 1000 mL water. The pH value of the buffer was adjusted to pH 6.0 by 85% of phosphoric acid.
Cell culture experiments were described previously. Briefly, after culture medium was aspirated, the cell monolayers were washed three times with blank HBSS. The transepithelial electrical resistance (TEER) values of cell monolayers were measured, which were more than […]. The monolayers were incubated with the blank HBSS for 1 h with 37°C. Thereafter the incubation medium was aspirated. […] The amounts of transported compound were measured as a function of time by UPLC-MS method described previously. […] At the end of the transport experiment, integrity of the monolayer was monitored by TEER value.

[4] = rat, in vivo, po
[5] = system: influenza virus strain, A/PR8/34(H1N1); assay: Antiviral effect of serum after oral administration on influenza virus in MDCK cells (MTT); type: cell-based; conditions: COS 25 mg/kg, ribavirin 20 mg/kg, MTT after 48 h

N[C@H]1[C@H](O[C@H]2[C@H](O)[C@@H](N)[C@H](O[C@H]3[C@H](O)[C@@H](N)[C@H](O[C@H]4[C@H](O)[C@@H](N)[C@H](O[C@H]5[C@H](O)[C@@H](N)[C@H](O[C@H]6[C@H](O)[C@@H](N)C(O)O[C@@H]6CO)O[C@@H]5CO)O[C@@H]4CO)O[C@@H]3CO)O[C@@H]2CO)O[C@H](CO)[C@@H](O)[C@@H]1O (some centres unmarked) [chitosan hexamer]
increase of the bioavailability of insulin and FDs [1]: about 2.5 times

Triton X-100
Nucleo-apical distance (GI membrane; duodenum, jejunum and ileum, Triton X-100 200 mg/kg, vs PBS group): remarkable decrease | villi/crypt index (GI membrane; duodenum, jejunum, ileum and colon, Triton X-100 200 mg/kg, vs PBS group): remarkable decrease | morphology of the GI membrane (HE sections: stomach, jejunum, colon) (GI membrane; Triton X-100 200 mg/kg as positive control): could cause mucosal damage seriously

C[C@@H]1O[C@@H](OC[C@H]2O[C@@H](OCCc3ccc(O)c(O)c3)[C@H](O)[C@@H](O)[C@@H]2OC(=O)/C=C/c2ccc(O)c(O)c2)[C@H](O)[C@H](O)[C@H]1O [FTA, forsythoside A]
T 1/2λz ([2]; 100 mg/kg): 1.24 h | T 1/2λz [3]: 6.72 h | T max [3]: 0.75 h | absolute bioavailability orally [3]: ~0.72% | AUC(0-t) (in vivo): 28.5 ng·h/mL | IC50 (protein kinase C (PKCα)): 1.9 µM

O=C(/C=C/c1ccc(O)c(O)c1)O[C@@H]1C[C@](O)(C(=O)O)C[C@@H](O)[C@H]1O [CHA, Chlorogenic acid]
T 1/2z ([2]; 60 mg/kg): 1.05 h | T 1/2λz [3]: 3.63 h | T max [3]: 0.75 h | absolute bioavailability orally [3]: about 0.69% | AUC(0-t) (in vivo): 144 ng·h/mL

Chito-oligosaccharide [COS]
effect on the P app-value for FTA and CHA compared to the control group (Caco-2 cell monolayers): significant, concentration-dependent increase | CHA AUC0-480 min ([4]; 12.5 mg/kg): 52938.0±3520.0 ng⋅min/mL | FTA AUC0-480 min ([4]; 12.5 mg/kg): 2874.7±564.9 ng⋅min/mL | CHA AUC0-480 min ([4]; 25 mg/kg): 296980.0±36456.0 ng⋅min/mL | FTA AUC0-480 min ([4]; 25 mg/kg): 6286.0±1329.7 ng⋅min/mL | CHA AUC0-480 min ([4]; 50 mg/kg): 152641.5±72581.0 ng⋅min/mL | FTA AUC0-480 min ([4]; 50 mg/kg): 3143.0±572.1 ng⋅min/mL

NC(=O)c1ncn([C@@H]2O[C@H](CO)[C@@H](O)[C@H]2O)n1 [ribavirin]
inhibition rate on influenza virus compared with PBS group [5]: remarkable increase
